How the values were obtained:
Assay in all cases: Test E greenhouse herbicide test, pre- and postemergence
Format in all cases: in vivo
[1] = system: dayflower (Virginia (VA) dayflower, Commelina virginica)
Method in brief: (§1)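 For each species, sown seed in silt loam and young plants (2 to 18 cm) in a peat/vermiculite medium were each treated with compound dissolved in surfactant-containing, non-phytotoxic solvent. After 14 to 21 d under greenhouse conditions, effects were visually rated, 100 meaning complete control.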

[2] = system: beggarticks (hairy beggarticks, Bidens pilosa)
Method in brief: as §1

[3] = system: horseweed (Conyza canadensis)
Method in brief: as §1

[4] = system: soybean (Glycine max)
Method in brief: as §1

[5] = system: lambsquarters (Chenopodium album); conditions: Preemergence
Method in brief: as §1

[6] = system: pigweed, palmer (palmer pigweed, Amaranthus palmeri)
Method in brief: as §1

[7] = system: ragweed (common ragweed, Ambrosia elatior)
Method in brief: as §1

[8] = system: velvetleaf (Abutilon theophrasti); conditions: Preemergence
Method in brief: as §1

[9] = system: corn (Zea mays)
Method in brief: as §1

[10] = system: panicum, fall (fall panicum, Panicum dichotomiflorum)
Method in brief: as §1

[11] = system: foxtail, green (green foxtail, Setaria viridis); conditions: Preemergence
Method in brief: as §1

[12] = system: johnsongrass (Sorghum halepense); conditions: Preemergence
Method in brief: as §1

[13] = system: barnyardgrass (Echinochloa crus-galli)
Method in brief: as §1

[14] = system: foxtail, giant (giant foxtail, Setaria faberii); conditions: Preemergence
Method in brief: as §1

[15] = system: nutsedge, yellow (yellow nutsedge, Cyperus esculentus); conditions: Preemergence
Method in brief: as §1

[16] = system: sandbur (southem sandbur, Cenchrus echinatus)
Method in brief: as §1

[17] = 62 g ai/ha, Postemergence, scale 0 to 100 (0 no effect, 100 complete control)
[18] = 62 g ai/ha, Preemergence, scale 0 to 100 (0 no effect, 100 complete control)
[19] = 125 g ai/ha, Postemergence, scale 0 to 100 (0 no effect, 100 complete control)
[20] = 250 g ai/ha, Postemergence, scale 0 to 100 (0 no effect, 100 complete control)
[21] = Postemergence, 31 g ai/ha, visual, scale 0 no effect to 100 complete control
[22] = Preemergence, 31 g ai/ha, scale 0 to 100, 0 no effect, 100 complete control
[23] = Preemergence, 125 g ai/ha, visual, scale 0 no effect to 100 complete control
[24] = Preemergence, 250 g ai/ha, visual, scale 0 no effect to 100 complete control
[25] = 125 g ai/ha, Preemergence, scale 0 to 100 (0 no effect, 100 complete control)
[26] = 62 g ai/ha, scale 0 to 100 (0 no effect, 100 complete control)
[27] = 31 g ai/ha, scale 0 to 100, 0 no effect, 100 complete control
[28] = 125 g ai/ha, visual, scale 0 no effect to 100 complete control
[29] = 250 g ai/ha, visual, scale 0 no effect to 100 complete control
[30] = 125 g ai/ha, scale 0 to 100 (0 no effect, 100 complete control)

Cn1nc(Br)c(O)c(-c2cccc3ccccc23)c1=O [Compound 20]
10: Plant response rating, Dayflower, VA [1, 17] | Plant response rating, Barnyardgrass [13, 23]
60: Plant response rating, Barnyardgrass [13, 19]
0: Plant response rating, Dayflower, VA [1, 18] | Plant response rating, Dayflower, VA [1, 21] | Plant response rating, Dayflower, VA [1, 22] | Plant response rating, Dayflower, VA [1, 23] | Plant response rating, Dayflower, VA [1, 24] | Plant response rating, Soybean [4, 18] | Plant response rating, Soybean [4, 22] | Plant response rating, Pigweed, Palmer [6, 18] | Plant response rating, Pigweed, Palmer [6, 22] | Plant response rating, Velvetleaf [8, 27] | Plant response rating, Corn [9, 17] | Plant response rating, Corn [9, 18] | Plant response rating, Corn [9, 19] | Plant response rating, Corn [9, 21] | Plant response rating, Corn [9, 22] | Plant response rating, Corn [9, 23] | Plant response rating, Corn [9, 24] | Plant response rating, Panicum, Fall [10, 21] | Plant response rating, Panicum, Fall [10, 22] | Plant response rating, Foxtail, Green [11, 27] | Plant response rating, Johnsongrass [12, 27] | Plant response rating, Johnsongrass [12, 29] | Plant response rating, Barnyardgrass [13, 18] | Plant response rating, Barnyardgrass [13, 22] | Plant response rating, Nutsedge, Yellow [15, 27] | Plant response rating, Sandbur [16, 18] | Plant response rating, Sandbur [16, 22]
55: Plant response rating, Pigweed, Palmer [6, 19]
90: Plant response rating, Foxtail, Giant [14, 29]
50: Plant response rating, Dayflower, VA [1, 19] | Plant response rating, Dayflower, VA [1, 20] | Plant response rating, Panicum, Fall [10, 20] | Plant response rating, Barnyardgrass [13, 17] | Plant response rating, Nutsedge, Yellow [15, 26]
35: Plant response rating, Pigweed, Palmer [6, 17] | Plant response rating, Panicum, Fall [10, 18]
20: Plant response rating, Beggarticks [2, 22] | Plant response rating, Soybean [4, 17] | Plant response rating, Soybean [4, 25] | Plant response rating, Soybean [4, 21] | Plant response rating, Foxtail, Giant [14, 26] | Plant response rating, Sandbur [16, 17]
30: Plant response rating, Soybean [4, 20] | Plant response rating, Ragweed [7, 22] | Plant response rating, Panicum, Fall [10, 19] | Plant response rating, Barnyardgrass [13, 21] | Plant response rating, Barnyardgrass [13, 24] | Plant response rating, Sandbur [16, 19]
5: Plant response rating, Pigweed, Palmer [6, 25] | Plant response rating, Foxtail, Giant [14, 27]
85: Plant response rating, Beggarticks [2, 18] | Plant response rating, Beggarticks [2, 21] | Plant response rating, Horseweed [3, 20] | Plant response rating, Ragweed [7, 19]
80: Plant response rating, Horseweed [3, 17] | Plant response rating, Ragweed [7, 20] | Plant response rating, Velvetleaf [8, 30] | Plant response rating, Barnyardgrass [13, 20]
65: Plant response rating, Ragweed [7, 18] | Plant response rating, Ragweed [7, 21] | Plant response rating, Velvetleaf [8, 26] | Plant response rating, Panicum, Fall [10, 25] | Plant response rating, Foxtail, Green [11, 28] | Plant response rating, Sandbur [16, 25]
40: Plant response rating, Soybean [4, 19] | Plant response rating, Pigweed, Palmer [6, 21] | Plant response rating, Foxtail, Green [11, 26] | Plant response rating, Sandbur [16, 20]
15: Plant response rating, Corn [9, 20] | Plant response rating, Panicum, Fall [10, 17] | Plant response rating, Sandbur [16, 21]
95: Plant response rating, Beggarticks [2, 17] | Plant response rating, Beggarticks [2, 23] | Plant response rating, Lambsquarters [5, 26] | Plant response rating, Lambsquarters [5, 28] | Plant response rating, Nutsedge, Yellow [15, 29]
75: Plant response rating, Ragweed [7, 17] | Plant response rating, Foxtail, Giant [14, 28] | Plant response rating, Nutsedge, Yellow [15, 30] | Plant response rating, Sandbur [16, 24]
70: Plant response rating, Horseweed [3, 19] | Plant response rating, Horseweed [3, 21] | Plant response rating, Lambsquarters [5, 27] | Plant response rating, Pigweed, Palmer [6, 20] | Plant response rating, Pigweed, Palmer [6, 24] | Plant response rating, Ragweed [7, 25] | Plant response rating, Foxtail, Green [11, 29]
98: Plant response rating, Beggarticks [2, 19] | Plant response rating, Beggarticks [2, 24] | Plant response rating, Ragweed [7, 24] | Plant response rating, Panicum, Fall [10, 24]
100: Plant response rating, Beggarticks [2, 20] | Plant response rating, Horseweed [3, 18] | Plant response rating, Horseweed [3, 22] | Plant response rating, Horseweed [3, 23] | Plant response rating, Horseweed [3, 24] | Plant response rating, Lambsquarters [5, 29] | Plant response rating, Velvetleaf [8, 29]

Cc1ccc2ccccc2c1-c1c(OC(=O)OC(C)C)c(C)nn(C)c1=O [Compound 72]
20: Plant response rating, Corn [9, 19] | Plant response rating, Nutsedge, Yellow [15, 26]
50: Plant response rating, Dayflower, VA [1, 25] | Plant response rating, Dayflower, VA [1, 24] | Plant response rating, Soybean [4, 20] | Plant response rating, Pigweed, Palmer [6, 17] | Plant response rating, Pigweed, Palmer [6, 21] | Plant response rating, Velvetleaf [8, 27] | Plant response rating, Barnyardgrass [13, 25] | Plant response rating, Barnyardgrass [13, 20] | Plant response rating, Barnyardgrass [13, 24]
25: Plant response rating, Soybean [4, 21]
60: Plant response rating, Dayflower, VA [1, 21] | Plant response rating, Horseweed [3, 17] | Plant response rating, Horseweed [3, 21] | Plant response rating, Pigweed, Palmer [6, 19] | Plant response rating, Sandbur [16, 25] | Plant response rating, Sandbur [16, 21]
35: Plant response rating, Pigweed, Palmer [6, 22] | Plant response rating, Foxtail, Green [11, 26] | Plant response rating, Johnsongrass [12, 30] | Plant response rating, Johnsongrass [12, 29] | Plant response rating, Foxtail, Giant [14, 27] | Plant response rating, Nutsedge, Yellow [15, 29] | Plant response rating, Sandbur [16, 18]
10: Plant response rating, Corn [9, 17]
15: Plant response rating, Dayflower, VA [1, 18] | Plant response rating, Soybean [4, 24]
40: Plant response rating, Velvetleaf [8, 26] | Plant response rating, Barnyardgrass [13, 17] | Plant response rating, Barnyardgrass [13, 19]
30: Plant response rating, Soybean [4, 17] | Plant response rating, Soybean [4, 19] | Plant response rating, Corn [9, 20] | Plant response rating, Foxtail, Green [11, 27] | Plant response rating, Barnyardgrass [13, 18] | Plant response rating, Barnyardgrass [13, 21] | Plant response rating, Nutsedge, Yellow [15, 30]
70: Plant response rating, Beggarticks [2, 22] | Plant response rating, Horseweed [3, 20] | Plant response rating, Foxtail, Green [11, 29] | Plant response rating, Foxtail, Giant [14, 30] | Plant response rating, Sandbur [16, 17] | Plant response rating, Sandbur [16, 24]
0: Plant response rating, Dayflower, VA [1, 22] | Plant response rating, Horseweed [3, 22] | Plant response rating, Soybean [4, 18] | Plant response rating, Soybean [4, 25] | Plant response rating, Soybean [4, 22] | Plant response rating, Ragweed [7, 22] | Plant response rating, Corn [9, 18] | Plant response rating, Corn [9, 25] | Plant response rating, Corn [9, 21] | Plant response rating, Corn [9, 22] | Plant response rating, Corn [9, 24] | Plant response rating, Johnsongrass [12, 26] | Plant response rating, Johnsongrass [12, 27] | Plant response rating, Barnyardgrass [13, 22] | Plant response rating, Sandbur [16, 22]
95: Plant response rating, Pigweed, Palmer [6, 25] | Plant response rating, Ragweed [7, 20]
90: Plant response rating, Beggarticks [2, 21] | Plant response rating, Lambsquarters [5, 27] | Plant response rating, Pigweed, Palmer [6, 24] | Plant response rating, Ragweed [7, 17] | Plant response rating, Ragweed [7, 18] | Plant response rating, Ragweed [7, 19] | Plant response rating, Ragweed [7, 25] | Plant response rating, Velvetleaf [8, 29] | Plant response rating, Panicum, Fall [10, 25]
98: Plant response rating, Beggarticks [2, 19] | Plant response rating, Beggarticks [2, 25] | Plant response rating, Beggarticks [2, 20] | Plant response rating, Panicum, Fall [10, 24]
80: Plant response rating, Dayflower, VA [1, 19] | Plant response rating, Dayflower, VA [1, 20] | Plant response rating, Beggarticks [2, 18] | Plant response rating, Lambsquarters [5, 26] | Plant response rating, Velvetleaf [8, 30] | Plant response rating, Panicum, Fall [10, 17] | Plant response rating, Panicum, Fall [10, 18] | Plant response rating, Panicum, Fall [10, 19] | Plant response rating, Foxtail, Giant [14, 29] | Plant response rating, Sandbur [16, 20]
85: Plant response rating, Ragweed [7, 21] | Plant response rating, Panicum, Fall [10, 20]
100: Plant response rating, Beggarticks [2, 17] | Plant response rating, Beggarticks [2, 24] | Plant response rating, Horseweed [3, 18] | Plant response rating, Horseweed [3, 25] | Plant response rating, Horseweed [3, 24] | Plant response rating, Lambsquarters [5, 30] | Plant response rating, Lambsquarters [5, 29] | Plant response rating, Ragweed [7, 24]
65: Plant response rating, Dayflower, VA [1, 17] | Plant response rating, Foxtail, Green [11, 30] | Plant response rating, Foxtail, Giant [14, 26]
75: Plant response rating, Horseweed [3, 19] | Plant response rating, Pigweed, Palmer [6, 18] | Plant response rating, Pigweed, Palmer [6, 20] | Plant response rating, Panicum, Fall [10, 21] | Plant response rating, Panicum, Fall [10, 22] | Plant response rating, Sandbur [16, 19]

From patent US10597388B2, “Pyridazinone herbicides” (FMC CORPORATION, priority 2014, dated 2020)
